Results on 18 compounds are retold here after US9193714B2, “Fluorinated estrogen receptor modulators and uses thereof” (priority 2011, dated 2015).

pIC50: −log10 of the molar value. Like-named read-outs stand apart in the source and are kept apart here. Some results are limits rather than exact numbers.

One test has as its target T1, ER-α (Homo sapiens, UniProt P03372).
T1 construct: endogenous in cells; host or cells: MCF-7
Kind of test: Breast Cancer Cell ER-α in Cell Western Assay (SP1). The format is cell-based. Conditions: MCF7, read-out: ER In-Cell Western Assay (SP1); Max Response. On the procedure:
MCF-7 cells were adjusted to a concentration of 200,000 cells per mL in RPMI containing 10% charcoal-stripped FBS and 20 mM HEPES. 16 microliters of the cell suspension (3200 cells) was added to each well of a poly-D-lysine 384 well plate, and the cells were incubated overnight to allow the cells to adhere. The following day an eleven point, serial semilog dilution of each compound was added to the cells in 16 μL at a final concentration ranging from 0.3-0.000003 μM. At 4 or 24 hr post compound addition, the cells were fixed (10% formalin in PBS) for 20 minutes. Cells were permeablized in PBS 0.1% Triton and blocked with LICOR blocking buffer (50 μl/well, 90′). The wells were then incubated overnight at 4° C. with SP1 rabbit monoclonal Ab (Thermo Scientific) diluted 1:1000 in LICOR blocking buffer/0.1% Tween-20. Wells which were treated with blocking buffer with Tween but no antibody were used as a background control. Wells were washed with 0.1% Tween-20/PBS and then incubated in goat anti-rabbit IRDye™ 800 CW (LICOR Inc.; 1:1000) and DRAQ5 DNA dye (1:2000 for 2 mM stock) diluted in LICOR blocking buffer containing 0.1% Tween-20 and 0.01% SDS for 60 minutes. Cells were washed (50 μl/well, 5′ each) in 0.1% Tween-20/PBS. Plates were scanned on a LICOR Odyssey infrared imaging system. Integrated intensities in the 800 nm channel and 700 nm channel were measured to determine levels of ER and DNA respectively. Percent ER levels were determined as follows: (Integrated intensity 800 nm sample/integrated intensity 700 nm sample)/(Integrated intensity 800 nm untreated cells/integrated intensity 700 nm untreated cells)×100=% ER levels.

Another test concerns MCF-7 cells. Nature of the test: Breast Cancer Cell Viability Assay (MCF7 Viability Assay). It counts as cell-based. The conditions noted are these: for pIC50: Homo sapiens, MCF7, 120 h, read-out: MCF7 Viability Assay IC50. As for the experimental part:
MCF-7 cells were adjusted to a concentration of 20,000 cells per mL in RPMI containing 10% FBS and 20 mM HEPES. 16 microliters of the cell suspension (320 cells) was added to each well of a 384 well plate, and the cells were incubated overnight to allow the cells to adhere. The following day an eleven point, serial semilog dilution of each compound was added to the cells in 16 μL at a final concentration ranging from 0.3-0.000003 μM. After 5 days' compound exposure, 16 μL of CellTiter-GLo (Promega, Madison Wis.) was added to the cells the relative luminescence units (RLUs) of each well was determined. CellTiter-Glo added to 32 μL of medium without cells was used to obtain a background value. The Percent viability of each sample was determined as follows: (RLU sample-RLU background/RLU untreated cells-RLU background)×100=% viability.

Where [1] appears, read: MCF-7 cells, 5 days' compound exposure, CellTiter-Glo.

T1 sequence (P03372 whole entry): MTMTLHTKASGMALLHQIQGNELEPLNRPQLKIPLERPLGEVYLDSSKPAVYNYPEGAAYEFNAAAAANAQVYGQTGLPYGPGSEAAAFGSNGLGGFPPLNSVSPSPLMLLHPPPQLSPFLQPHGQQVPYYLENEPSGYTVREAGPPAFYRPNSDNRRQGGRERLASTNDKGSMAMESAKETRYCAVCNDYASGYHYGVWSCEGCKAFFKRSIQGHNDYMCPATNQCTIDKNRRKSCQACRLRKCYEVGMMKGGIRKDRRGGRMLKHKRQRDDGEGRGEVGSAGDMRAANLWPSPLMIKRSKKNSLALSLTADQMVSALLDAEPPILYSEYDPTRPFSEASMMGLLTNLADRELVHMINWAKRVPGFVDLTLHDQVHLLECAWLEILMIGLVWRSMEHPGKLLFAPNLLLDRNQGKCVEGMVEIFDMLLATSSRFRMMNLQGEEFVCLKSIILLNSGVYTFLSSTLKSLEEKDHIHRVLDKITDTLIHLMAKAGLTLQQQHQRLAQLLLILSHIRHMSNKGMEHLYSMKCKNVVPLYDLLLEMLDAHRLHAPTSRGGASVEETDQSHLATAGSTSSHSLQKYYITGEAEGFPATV

One may read the pIC50 as the IC50 on a negative log10 scale, so that one unit is a factor of ten. In the case of `CC1=C(c2cccc(O)c2)[C@@H](c2ccc(OCCN3CC[C@@H](CF)C3)cc2)Oc2ccc(O)cc21` (single isomer, unassigned) [Example 2a], the Emax on ER-α is more than 85%. The pIC50 with MCF-7 cells was less than 9.00. In the test with MCF-7 cells (setting [1]), the “MCF7 Viability Assay Max Response” value is listed as “++ (a single % value ≧ 50%)”.
In the same order, the values of `CC1=C(c2cccc(O)c2)[C@H](c2ccc(OCCN3CC[C@@H](CF)C3)cc2)Oc2ccc(O)cc21` (single isomer, unassigned) [Example 2b] are more than 85%, more than 9.00 and “++ (a single % value ≧ 50%)”.
For `CC1=C(c2cccc(O)c2)[C@@H](c2ccc(OC[C@H](C)N3CC[C@@H](CF)C3)cc2)Oc2ccc(O)cc21` (single isomer, unassigned) [Example 3a], in that order: more than 85%, less than 9.00 and “++ (a single % value ≧ 50%)”.
For the compound `CC1=C(c2cccc(O)c2)[C@H](c2ccc(OC[C@H](C)N3CC[C@@H](CF)C3)cc2)Oc2ccc(O)cc21` (single isomer, unassigned) [Example 3b], the Emax at ER-α was more than 85%. In the test on MCF-7 cells, the pIC50 was more than 9.00. Further, the “MCF7 Viability Assay Max Response” value in the test with MCF-7 cells (setting [1]) is given as “++ (a single % value ≧ 50%)”.
For `CC1=C(c2cccc(O)c2)C(c2ccc(OCCN3CC(CF)C3)cc2)Oc2ccc(O)cc21` (stereo not shown) [Example 1, 2-(4-(2-(3-(Fluoromethyl)azetidin-1-yl)ethoxy)phenyl)-3-(3-hydroxyphenyl)-4-methyl-2H-chromen-6-ol], the Emax at ER-α was more than 85%. Moreover, the pIC50 in the test on MCF-7 cells is more than 9.00. For the same compound, the “MCF7 Viability Assay Max Response” value with MCF-7 cells (setting [1]) is “++ (a single % value ≧ 50%)”.
Regarding `CC1=C(c2cccc(O)c2)C(c2ccc(OCCN3CC[C@@H](CF)C3)cc2)Oc2ccc(O)cc21` (stereo partly drawn) [Example 2, 2-(4-(2-((R)-3-(Fluoromethyl)pyrrolidin-1-yl)ethoxy)phenyl)-3-(3-hydroxyphenyl)-4-methyl-2H-chromen-6-ol], the Emax at ER-α is more than 85%. Moreover, the pIC50 with MCF-7 cells was more than 9.00. For the same compound, the “MCF7 Viability Assay Max Response” value in the test with MCF-7 cells (setting [1]) is “++ (a single % value ≧ 50%)”.
For the compound `CC1=C(c2cccc(O)c2)C(c2ccc(OC[C@H](C)N3CC[C@@H](CF)C3)cc2)Oc2ccc(O)cc21` (stereo partly drawn) [Example 3, 2-(4-((S)-2-((R)-3-(Fluoromethyl)pyrrolidin-1-yl)propoxy)phenyl)-3-(3-hydroxyphenyl)-4-methyl-2H-chromen-6-ol], the Emax at ER-α was more than 85%. The negative-log IC50 (pIC50) in the test on MCF-7 cells was more than 9.00. Besides, the “MCF7 Viability Assay Max Response” value in the test on MCF-7 cells (setting [1]) is “++ (a single % value ≧ 50%)”.
Turning to `CC1=C(c2ccc(Cl)cc2)C(c2ccc(OCCN3CC[C@@H](CF)C3)cc2)Oc2ccc(O)cc21` (stereo partly drawn) [Example 4, 3-(4-Chlorophenyl)-2-(4-(2-((R)-3-(fluoromethyl)pyrrolidin-1-yl)ethoxy)phenyl)-4-methyl-2H-chromen-6-ol], at ER-α, the Emax was more than 85%. Besides, in the test with MCF-7 cells (setting [1]), the pIC50 is less than 9.00 and the “MCF7 Viability Assay Max Response” value is given as “++ (a single % value ≧ 50%)”.
`CC1=C(c2ccc(O)c(F)c2)C(c2ccc(OCCN3CC[C@@H](CF)C3)cc2)Oc2ccc(O)cc21` (stereo partly drawn) [Example 5, 3-(3-Fluoro-4-hydroxyphenyl)-2-(4-(2-((R)-3-(fluoromethyl)pyrrolidin-1-yl)ethoxy)phenyl)-4-methyl-2H-chromen-6-ol]: the Emax at ER-α is more than 85%. In the test with MCF-7 cells (setting [1]), the pIC50 was more than 9.00 and the “MCF7 Viability Assay Max Response” value is given as “++ (a single % value ≧ 50%)”.
In the case of `CC1=C(c2cc(O)c(F)c(F)c2)C(c2ccc(OCCN3CC[C@@H](CF)C3)cc2)Oc2ccc(O)cc21` (stereo partly drawn) [Example 6, 3-(3,4-Difluoro-5-hydroxyphenyl)-2-(4-(2-((R)-3-(fluoromethyl)pyrrolidin-1-yl)ethoxy)phenyl)-4-methyl-2H-chromen-6-ol], on ER-α, the Emax was more than 85%. For the same compound, in the test on MCF-7 cells (setting [1]), the pIC50 was more than 9.00 and the “MCF7 Viability Assay Max Response” value was “++ (a single % value ≧ 50%)”.
For the compound `CC1=C(c2cc(O)ccc2F)C(c2ccc(OCCN3CC[C@@H](CF)C3)cc2)Oc2ccc(O)cc21` (stereo partly drawn) [Example 7, 3-(2-Fluoro-5-hydroxyphenyl)-2-(4-(2-((R)-3-(fluoromethyl)pyrrolidin-1-yl)ethoxy)phenyl)-4-methyl-2H-chromen-6-ol], the Emax on ER-α was more than 85%. Besides, in the test on MCF-7 cells (setting [1]), the pIC50 is more than 9.00 and the “MCF7 Viability Assay Max Response” value is listed as “++ (a single % value ≧ 50%)”.
As to `CC1=C(c2ccc(F)c(O)c2)C(c2ccc(OCCN3CC[C@@H](CF)C3)cc2)Oc2ccc(O)cc21` (stereo partly drawn) [Example 8, 3-(4-Fluoro-3-hydroxyphenyl)-2-(4-(2-((R)-3-(fluoromethyl)pyrrolidin-1-yl)ethoxy)phenyl)-4-methyl-2H-chromen-6-ol], on ER-α, the Emax is more than 85%. Also, in the test on MCF-7 cells (setting [1]), the pIC50 was less than 9.00 and the “MCF7 Viability Assay Max Response” value is “++ (a single % value ≧ 50%)”.
For the compound `CC1=C(c2cc(O)c(F)c(F)c2)C(c2ccc(OC[C@H](C)N3CC[C@@H](CF)C3)cc2)Oc2ccc(O)cc21` (stereo partly drawn) [Example 9, 3-(3,4-Difluoro-5-hydroxyphenyl)-2-(4-((S)-2-((R)-3-(fluoromethyl)pyrrolidin-1-yl)propoxy)phenyl)-4-methyl-2H-chromen-6-ol], the Emax on ER-α is more than 85%. Also, in the test on MCF-7 cells (setting [1]), the pIC50 was more than 9.00 and the “MCF7 Viability Assay Max Response” value is reported as “++ (a single % value ≧ 50%)”.
Turning to `CC1=C(c2cc(O)cc(F)c2)C(c2ccc(OCCN3CC[C@@H](CF)C3)cc2)Oc2ccc(O)cc21` (stereo partly drawn) [Example 10, 3-(3-Fluoro-5-hydroxyphenyl)-2-(4-(2-((R)-3-(fluoromethyl)pyrrolidin-1-yl)ethoxy)phenyl)-4-methyl-2H-chromen-6-ol], the Emax on ER-α was more than 85%. In the test on MCF-7 cells (setting [1]), the pIC50 is more than 9.00 and the “MCF7 Viability Assay Max Response” value is “++ (a single % value ≧ 50%)”.
As to `CC1=C(c2ccc(F)c(O)c2)C(c2ccc(OC[C@H](C)N3CC[C@@H](CF)C3)cc2)Oc2ccc(O)cc21` (stereo partly drawn) [Example 11, 3-(4-Fluoro-3-hydroxyphenyl)-2-(4-((S)-2-((R)-3-(fluoromethyl)pyrrolidin-1-yl)propoxy)phenyl)-4-methyl-2H-chromen-6-ol], the Emax on ER-α is more than 85%. Besides, in the test with MCF-7 cells (setting [1]), the pIC50 is more than 9.00 and the “MCF7 Viability Assay Max Response” value is “++ (a single % value ≧ 50%)”.
Regarding `CC1=C(c2cc(O)cc(F)c2)C(c2ccc(OC[C@H](C)N3CC[C@@H](CF)C3)cc2)Oc2ccc(O)cc21` (stereo partly drawn) [Example 12, 3-(3-Fluoro-5-hydroxyphenyl)-2-(4-((S)-2-((R)-3-(fluoromethyl)pyrrolidin-1-yl)propoxy)phenyl)-4-methyl-2H-chromen-6-ol], the Emax at ER-α was more than 85%. In the test with MCF-7 cells (setting [1]), the pIC50 is more than 9.00 and the “MCF7 Viability Assay Max Response” value is listed as “++ (a single % value ≧ 50%)”.
For `CC1=C(c2ccc(O)c(F)c2)C(c2ccc(OC[C@H](C)N3CC[C@@H](CF)C3)cc2)Oc2ccc(O)cc21` (stereo partly drawn) [Example 13, 3-(3-Fluoro-4-hydroxyphenyl)-2-(4-((S)-2-((R)-3-(fluoromethyl)pyrrolidin-1-yl)propoxy)phenyl)-4-methyl-2H-chromen-6-ol], in that order: more than 85%, more than 9.00 and “++ (a single % value ≧ 50%)”.
In the case of `CC1=C(c2cccc(O)c2)C(c2ccc(OCCN3CCC(CF)CC3)cc2)Oc2ccc(O)cc21` (stereo not shown) [Example 19, 2-(4-(2-(4-(Fluoromethyl)piperidin-1-yl)ethoxy)phenyl)-3-(3-hydroxyphenyl)-4-methyl-2H-chromen-6-ol], the Emax at ER-α was in the range of 60 to 85%.
